Test results from US11339447B2, “System and method for determining Kareniticin sensitivity on cancer” (CROWN BIOSCIENCE, INC. (TAICANG), priority 2017, dated 2022).

What was measured:
PDX CR2520 = test: karenitecin treatment of PDX model; assay type: in vivo; design: key to Response: responder: responded to karenitecin treatment (AUC<0.5 and TGI>0.8); non_responder: did not respond to karenitecin treatment (AUC>0.5 and TGI<0.6); details: karenitecin treatment for two weeks
Description: (§1) A cohort of 48 PDX models in 8 cancers were used in this study. Those models were subject to karenitecin treatment for two weeks. Both tumor growth inhibition (TGI) and median AUC (area under curve) ratio, a newly developed metric to evaluate drug efficacy, were calculated (Table 1). Those models can be divided into two categories according to TGI and median AUC ratio.

PDX CR2528 = test: karenitecin treatment of PDX model; assay type: in vivo; design: key to Response: responder: responded to karenitecin treatment (AUC<0.5 and TGI>0.8); non_responder: did not respond to karenitecin treatment (AUC>0.5 and TGI<0.6); details: karenitecin treatment for two weeks
Description: as §1

PDX CR3085 = test: karenitecin treatment of PDX model; assay type: in vivo; design: key to Response: responder: responded to karenitecin treatment (AUC<0.5 and TGI>0.8); non_responder: did not respond to karenitecin treatment (AUC>0.5 and TGI<0.6); details: karenitecin treatment for two weeks
Description: as §1

PDX ES0042 = test: karenitecin treatment of PDX model; assay type: in vivo; design: key to Response: responder: responded to karenitecin treatment (AUC<0.5 and TGI>0.8); non_responder: did not respond to karenitecin treatment (AUC>0.5 and TGI<0.6); details: karenitecin treatment for two weeks
Description: as §1

PDX ES2267 = test: karenitecin treatment of PDX model; assay type: in vivo; design: key to Response: responder: responded to karenitecin treatment (AUC<0.5 and TGI>0.8); non_responder: did not respond to karenitecin treatment (AUC>0.5 and TGI<0.6); details: karenitecin treatment for two weeks
Description: as §1

PDX GA3109 = test: karenitecin treatment of PDX model; assay type: in vivo; design: key to Response: responder: responded to karenitecin treatment (AUC<0.5 and TGI>0.8); non_responder: did not respond to karenitecin treatment (AUC>0.5 and TGI<0.6); details: karenitecin treatment for two weeks
Description: as §1

PDX LU1235 = test: karenitecin treatment of PDX model; assay type: in vivo; design: key to Response: responder: responded to karenitecin treatment (AUC<0.5 and TGI>0.8); non_responder: did not respond to karenitecin treatment (AUC>0.5 and TGI<0.6); details: karenitecin treatment for two weeks
Description: as §1

PDX LU1271 = test: karenitecin treatment of PDX model; assay type: in vivo; design: key to Response: responder: responded to karenitecin treatment (AUC<0.5 and TGI>0.8); non_responder: did not respond to karenitecin treatment (AUC>0.5 and TGI<0.6); details: karenitecin treatment for two weeks
Description: as §1

PDX LU1429 = test: karenitecin treatment of PDX model; assay type: in vivo; design: key to Response: responder: responded to karenitecin treatment (AUC<0.5 and TGI>0.8); non_responder: did not respond to karenitecin treatment (AUC>0.5 and TGI<0.6); details: karenitecin treatment for two weeks
Description: as §1

PDX LU1868 = test: karenitecin treatment of PDX model; assay type: in vivo; design: key to Response: responder: responded to karenitecin treatment (AUC<0.5 and TGI>0.8); non_responder: did not respond to karenitecin treatment (AUC>0.5 and TGI<0.6); details: karenitecin treatment for two weeks
Description: as §1

PDX LU1901 = test: karenitecin treatment of PDX model; assay type: in vivo; design: key to Response: responder: responded to karenitecin treatment (AUC<0.5 and TGI>0.8); non_responder: did not respond to karenitecin treatment (AUC>0.5 and TGI<0.6); details: karenitecin treatment for two weeks
Description: as §1

PDX LU6429 = test: karenitecin treatment of PDX model; assay type: in vivo; design: key to Response: responder: responded to karenitecin treatment (AUC<0.5 and TGI>0.8); non_responder: did not respond to karenitecin treatment (AUC>0.5 and TGI<0.6); details: karenitecin treatment for two weeks
Description: as §1

PDX PA3029 = test: karenitecin treatment of PDX model; assay type: in vivo; design: key to Response: responder: responded to karenitecin treatment (AUC<0.5 and TGI>0.8); non_responder: did not respond to karenitecin treatment (AUC>0.5 and TGI<0.6); details: karenitecin treatment for two weeks
Description: as §1

[1] = prior studies, cited from earlier work

CC[C@@]1(O)C(=O)OCc2c1cc1n(c2=O)Cc2c-1nc1ccccc1c2CC[Si](C)(C)C [karenitecin]
Median AUC ratio (PDX CR2520): 0.914 | Response (PDX CR2520): non_responder | TGI (PDX CR2520): 0.288 | Median AUC ratio (PDX CR2528): 1.014 | Response (PDX CR2528): non_responder | TGI (PDX CR2528): 0.519 | Median AUC ratio (PDX CR3085): 0.019 | Response (PDX CR3085): responder | TGI (PDX CR3085): 1.051 | Median AUC ratio (PDX ES0042): −0.100 | Response (PDX ES0042): responder | TGI (PDX ES0042): 1.128 | Median AUC ratio (PDX ES2267): −0.288 | Response (PDX ES2267): responder | TGI (PDX ES2267): 1.240 | Median AUC ratio (PDX GA3109): 0.137 | Response (PDX GA3109): responder | TGI (PDX GA3109): 1.046 | Median AUC ratio (PDX LU1235): −0.018 | Response (PDX LU1235): responder | TGI (PDX LU1235): 0.932 | Median AUC ratio (PDX LU1271): −0.007 | Response (PDX LU1271): responder | TGI (PDX LU1271): 1.081 | Median AUC ratio (PDX LU1429): 0.076 | Response (PDX LU1429): responder | TGI (PDX LU1429): 1.054 | Median AUC ratio (PDX LU1868): 0.915 | Response (PDX LU1868): non_responder | TGI (PDX LU1868): 0.534 | Median AUC ratio (PDX LU1901): −0.295 | Response (PDX LU1901): responder | TGI (PDX LU1901): 1.077 | Median AUC ratio (PDX LU6429): 1.106 | Response (PDX LU6429): non_responder | TGI (PDX LU6429): 0.241 | Median AUC ratio (PDX PA3029): 0.768 | Response (PDX PA3029): non_responder | TGI (PDX PA3029): 0.423 | incidence of severe diarrhea ([1]; compared with irinotecan): lower | incidence and severity of anemia, neutropenia and thrombocytopenia ([1]; compared with topotecan): lower
